Source: US20200199537A1, “LIVER ORGANOID COMPOSITIONS AND METHODS OF MAKING AND USING SAME” (Children's Hospital Medical Center, priority 2017, published 2020)
Where two headings read alike, the source gives them in different places. Each block holds one compound with its values, some of them ahead of it.

Experiments:
[1] = system: bile transport activity (efflux of fluorescein diacetate) in human liver organoids
[2] = system: CLF excretion into iPSC-liver organoids; conditions: human
MRP2 = MRP2 (Homo sapiens, UniProt Q92887); conditions: previously reported; cited from earlier work
[3] = system: lipotoxic human liver organoids; assay: Evaluation of viability in organoids on vulnerable (lipotoxic, oleic acid) condition; assay type: cell-based
Method: Next, 50 μM of Troglitazone was treated with or without 50 μM NAC for 24 h. […] Images were captured sequentially using fluorescent microscopy BZ-9000.

human liver organoids [4] = conditions: for cell viability: human, 50 μM
human liver organoids [5] = assay: Lipid accumulation in organoids after oleic acid treatment; assay type: cell-based; conditions: 3 days after treatment, 800 μM
Method: Images were captured sequentially using fluorescent microscopy BZ-9000. […] The following regents or kits were used: BODIPY® 493/503 for lipids (Thermo Fisher Scientific), and SiR Actin Kit for cytoskeleton (USA Scientific, FL, USA), CellROX® Green Reagent for ROS (Fisher Scientific), TMRM (Thermo Fisher Scientific) for mitochondria. […] ROS production, mitochondria size and number were analyzed by IMARIS8.

Sequence of MRP2 (Q92887 whole entry): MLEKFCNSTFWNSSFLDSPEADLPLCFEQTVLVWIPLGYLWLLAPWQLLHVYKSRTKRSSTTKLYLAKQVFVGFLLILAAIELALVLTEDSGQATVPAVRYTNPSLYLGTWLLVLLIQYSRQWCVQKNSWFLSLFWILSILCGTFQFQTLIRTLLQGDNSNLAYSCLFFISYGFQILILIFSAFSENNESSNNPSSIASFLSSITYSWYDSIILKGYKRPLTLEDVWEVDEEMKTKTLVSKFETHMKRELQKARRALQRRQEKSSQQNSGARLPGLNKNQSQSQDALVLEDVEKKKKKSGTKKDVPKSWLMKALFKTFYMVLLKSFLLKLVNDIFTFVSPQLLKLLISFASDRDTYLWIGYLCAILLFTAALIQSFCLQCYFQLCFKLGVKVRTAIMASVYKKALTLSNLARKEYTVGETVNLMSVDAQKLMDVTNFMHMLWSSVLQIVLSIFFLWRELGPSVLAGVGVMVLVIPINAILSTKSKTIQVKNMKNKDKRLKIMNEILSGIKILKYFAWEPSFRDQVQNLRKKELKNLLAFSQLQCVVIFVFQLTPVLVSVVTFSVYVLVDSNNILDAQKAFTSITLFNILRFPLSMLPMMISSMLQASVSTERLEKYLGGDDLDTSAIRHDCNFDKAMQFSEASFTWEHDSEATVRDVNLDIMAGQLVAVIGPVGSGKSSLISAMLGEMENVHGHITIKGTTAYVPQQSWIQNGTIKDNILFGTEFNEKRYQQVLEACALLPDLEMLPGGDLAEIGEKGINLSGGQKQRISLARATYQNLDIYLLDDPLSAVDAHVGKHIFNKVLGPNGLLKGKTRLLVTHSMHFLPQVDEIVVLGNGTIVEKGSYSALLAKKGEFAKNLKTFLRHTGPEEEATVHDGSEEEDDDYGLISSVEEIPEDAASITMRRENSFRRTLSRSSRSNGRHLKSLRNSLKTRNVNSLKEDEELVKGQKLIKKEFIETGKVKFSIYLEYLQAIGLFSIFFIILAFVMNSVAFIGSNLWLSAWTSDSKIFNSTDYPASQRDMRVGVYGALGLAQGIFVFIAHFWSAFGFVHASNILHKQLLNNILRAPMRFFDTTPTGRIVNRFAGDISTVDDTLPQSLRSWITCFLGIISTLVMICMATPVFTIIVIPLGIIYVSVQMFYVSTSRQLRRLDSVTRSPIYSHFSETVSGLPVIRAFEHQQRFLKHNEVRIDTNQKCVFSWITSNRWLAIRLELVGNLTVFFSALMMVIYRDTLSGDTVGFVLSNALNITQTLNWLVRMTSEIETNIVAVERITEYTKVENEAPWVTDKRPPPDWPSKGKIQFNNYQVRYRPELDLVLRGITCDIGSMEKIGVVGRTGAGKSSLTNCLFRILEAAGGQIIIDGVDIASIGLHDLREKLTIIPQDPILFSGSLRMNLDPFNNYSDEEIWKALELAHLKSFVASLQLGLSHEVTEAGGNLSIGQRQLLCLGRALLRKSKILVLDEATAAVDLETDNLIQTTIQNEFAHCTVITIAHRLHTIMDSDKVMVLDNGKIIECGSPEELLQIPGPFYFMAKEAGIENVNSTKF

efflux of FD [1]: significantly decreased
SMILES: COc1ccccc1Oc1c(NS(=O)(=O)c2ccc(C(C)(C)C)cc2)nc(-c2ncccn2)nc1OCCO [Bosentan]
specificity of drug induced cholestasis to CYP2C9*2 iPSC lines [2]: specific to CYP2C9 poor metabolizer donor-derived HLO
export by efflux transporter MRP2 (MRP2): mediates export

SMILES: CC(=O)N[C@@H](CS)C(=O)O [NAC, N-acetylcysteine]
cell viability (rescue from Troglitazone toxicity) ([3]; lipotoxic condition, 50 μM Troglitazone with 50 μM NAC, 24 h): significantly improved

efflux of FD [1]: significantly decreased
SMILES: CCc1nn(CCCN2CCN(c3cccc(Cl)c3)CC2)c(=O)n1CCOc1ccccc1 [Nefazodone]
cell viability relative to TOL, DICLO and BOS (human liver organoids [4]): significantly lowered

SMILES: CN(CCOc1ccc(CC2SC(=O)NC2=O)cc1)c1ccccn1 (centres unmarked) [Rosiglitazone]
vulnerability of steatotic organoids to drug toxicity [3]: vulnerable

efflux of FD [1]: significantly decreased
SMILES: Cc1c(C)c2c(c(C)c1O)CCC(C)(COc1ccc(CC3SC(=O)NC3=O)cc1)O2 (centres unmarked) [Troglitazone]
cell viability compared to control ([3]; lipotoxic condition (800 μM oleic acid 3 days), 50 μM drug, 24 h): −40%
organoid morphology after treatment ([3]; lipotoxic condition, 24 h): massive fragmentation of organoids
cell viability relative to TOL, DICLO and BOS (human liver organoids [4]): significantly lowered
cell viability (human liver organoids [4]; 24 h): 85%
cell viability (human liver organoids [4]; 72 h): 67%

SMILES: CCCCCCCC/C=C\CCCCCCCC(=O)O [oleic acid]
lipid accumulation in organoids (human liver organoids [5]): intense
